# Where a name gives a salt, the structure may show the parent alone.
# Key:
# [1] = biological target: T1, proMMP9(67-444;ΔFnII) (SEQ ID NO:5) (Homo sapiens, UniProt P14780, DEL216-390); test: ThermoFluor binding assay with proMMP9(67-444;ΔFnII)
# T1 construct: start methionine (N); made in house; host or cells: E. coli BL21(DE3) RIL
# T1 sequence (P14780 with tags, fused parts or gaps DEL216-390): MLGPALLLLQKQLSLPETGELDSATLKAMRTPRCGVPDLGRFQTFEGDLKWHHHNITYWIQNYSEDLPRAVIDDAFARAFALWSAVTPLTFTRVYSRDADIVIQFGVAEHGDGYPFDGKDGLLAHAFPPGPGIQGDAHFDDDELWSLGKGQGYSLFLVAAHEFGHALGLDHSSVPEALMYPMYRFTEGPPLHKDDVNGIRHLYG
# Description: (§1) The ThermoFluor® (TF) assay is a 384-well plate-based binding assay that measures thermal stability of proteins (Biomol Screen 2001, 6, 429-40; Biochemistry 2005, 44, 5258-66). The experiments were carried out using instruments available from Johnson & Johnson Pharmaceutical Research & Development, LLC. TF dye used in all experiments was […] (1,8-ANS) (Invitrogen: A-47).
# (§2) Compounds were arranged in a pre-dispensed plate (Greiner Bio-one: 781280), wherein compounds were serially diluted in 100% DMSO across 11 columns within a series. Columns 12 and 24 were used as DMSO reference and contained no compound. For multiple compound concentration-response experiments, the compound aliquots ([…]) were robotically predispensed directly into black 384-well polypropylene PCR microplates (Abgene: TF-0384/k) using a Cartesian Hummingbird liquid handler (DigiLab, Holliston, Mass.). Following compound dispense, protein and dye solutions were added to achieve the final assay volume of 3 μL. The assay solutions were overlayed with 1 μL of silicone oil (Fluka, type DC 200: 85411) to prevent evaporation.
# (§3) Assay plates were robotically loaded onto a thermostatically controlled PCR-type thermal block and then heated from 40 to 90° C. at a ramp-rate of 1° C./min for all experiments. Fluorescence was measured by continuous illumination with UV light (Hamamatsu LC6) supplied via fiber optics and filtered through a band-pass filter (380-400 nm; >60D cutoff). Fluorescence emission of the entire 384-well plate was detected by measuring light intensity using a CCD camera (Sensys, Roper Scientific) filtered to detect 500±25 nm, resulting in simultaneous and independent readings of all 384 wells. A single image with 20-sec exposure time was collected at each temperature, and the sum of the pixel intensity in a given area of the assay plate was recorded vs temperature and fit to standard equations to yield the Tm (J Biomol Screen 2001, 6, 429-40).
# (§4) Thermodynamic parameters necessary for fitting compound binding for each proMMP were estimated by differential scanning calorimetry (DSC) and from ThermoFluor® data. The heat capacity of unfolding for each protein was estimated from the molecular weight and from ThermoFluor® dosing data.
# ThermoFluor® with proMMP9(67-444;ΔFnII) (SEQ ID NO:5)
# The protein sample preparations had to include a desalting buffer exchange step via a PD-10 gravity column (GE Healthcare). The desalting buffer exchange was performed prior to diluting the protein to the final assay concentration of 3.5 μM proMMP9(67-444;ΔFnII) (SEQ ID NO:5). The concentration of proMMP9(67-444;ΔFnII) (SEQ ID NO:5) was determined spectrophotometrically based on a calculated extinction coefficient of ε280=33900 M^−1cm^−1, a calculated molecular weight of 22.6 kDa, and calculated pI of 5.20. ThermoFluor® reference conditions were defined as follows: 80 μg/mL (3.5 μM) proMMP9(67-444;ΔFnII) (SEQ ID NO:5), 50 μM 1,8-ANS, pH 7.0 Buffer (50 mM HEPES pH 7.0, 100 mM NaCl, 0.001% Tween-20, 2.5 mM MgCl2, 300 μM CaCl2). The thermodynamic parameters for proMMP9(67-444;ΔFnII) (SEQ ID NO:5) are as follows: Tm (° C.)=63 (+/−0.1), ΔUH(Tm) (cal mol^−1)=105000(+/−5000), ΔUS(Tm) (cal mol^−1 K^−1)=[…], ΔUCp (cal mol^−1 K^−1)=2000.
# [2] = biological target: T2, proMMP9(20-445;ΔFnII) (SEQ ID NO:6) (Homo sapiens, UniProt P14780, DEL216-390); test: ThermoFluor binding assay with proMMP9(20-445;ΔFnII)
# T2 construct: start methionine (N); made in house; host or cells: E. coli BL21(DE3) RIL
# T2 sequence (P14780 with tags, fused parts or gaps DEL216-390): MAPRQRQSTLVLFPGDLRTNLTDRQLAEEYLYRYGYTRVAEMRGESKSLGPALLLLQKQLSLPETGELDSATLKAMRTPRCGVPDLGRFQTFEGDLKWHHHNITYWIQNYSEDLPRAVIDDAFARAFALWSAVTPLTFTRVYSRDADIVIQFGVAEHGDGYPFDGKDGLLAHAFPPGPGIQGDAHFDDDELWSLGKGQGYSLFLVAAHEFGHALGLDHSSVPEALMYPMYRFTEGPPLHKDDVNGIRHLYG
# Description: as §1, §2, §3, §4
# ThermoFluor® with proMMP9(20-445;ΔFnII) (SEQ ID NO:6)
# The protein sample preparations included a desalting buffer exchange step via a PD-10 gravity column (GE Healthcare). The desalting buffer exchange was performed prior to diluting the protein to the final assay concentration of 2.8 μM proMMP9(20-445;ΔFnII) (SEQ ID NO:6). The concentration of proMMP9(20-445;ΔFnII) (SEQ ID NO:6) was determined spectrophotometrically based on a calculated extinction coefficient of ε280=39880 M^−1cm^−1, a calculated molecular weight of 28.2 kDa, and calculated pI of 5.5. ThermoFluor® reference conditions were define as follows: 80 μg/mL (2.8 μM) proMMP9(20-445;ΔFnII) (SEQ ID NO:6), 50 μM 1,8-ANS, pH 7.0 Buffer (50 mM HEPES pH 7.0, 100 mM NaCl, 0.001% Tween-20, 2.5 mM MgCl2, 300 μM CaCl2). The thermodynamic parameters for proMMP9(20-445;ΔFnII) (SEQ ID NO:6) are as follows: Tm (° C.)=72 (+/−0.1), ΔUH(Tm) (cal mol^−1)=160000(+/−5000), ΔUS(Tm) (cal mol^−1 K^−1)=434, ΔUCp (cal mol^−1 K^−1)=2400.
# [3] = biological target: T3, full-length proMMP9(1-707) (SEQ ID NO:1), activation by catalytic MMP3 (Homo sapiens, UniProt P14780, R574P); test: proMMP9/MMP3 P126 Activation Assay; type: biochemical
# T3 construct: made in house; host or cells: HEK293 (proMMP9, secreted); E. coli (MMP3)
# T3 sequence (P14780 20-707 R574P): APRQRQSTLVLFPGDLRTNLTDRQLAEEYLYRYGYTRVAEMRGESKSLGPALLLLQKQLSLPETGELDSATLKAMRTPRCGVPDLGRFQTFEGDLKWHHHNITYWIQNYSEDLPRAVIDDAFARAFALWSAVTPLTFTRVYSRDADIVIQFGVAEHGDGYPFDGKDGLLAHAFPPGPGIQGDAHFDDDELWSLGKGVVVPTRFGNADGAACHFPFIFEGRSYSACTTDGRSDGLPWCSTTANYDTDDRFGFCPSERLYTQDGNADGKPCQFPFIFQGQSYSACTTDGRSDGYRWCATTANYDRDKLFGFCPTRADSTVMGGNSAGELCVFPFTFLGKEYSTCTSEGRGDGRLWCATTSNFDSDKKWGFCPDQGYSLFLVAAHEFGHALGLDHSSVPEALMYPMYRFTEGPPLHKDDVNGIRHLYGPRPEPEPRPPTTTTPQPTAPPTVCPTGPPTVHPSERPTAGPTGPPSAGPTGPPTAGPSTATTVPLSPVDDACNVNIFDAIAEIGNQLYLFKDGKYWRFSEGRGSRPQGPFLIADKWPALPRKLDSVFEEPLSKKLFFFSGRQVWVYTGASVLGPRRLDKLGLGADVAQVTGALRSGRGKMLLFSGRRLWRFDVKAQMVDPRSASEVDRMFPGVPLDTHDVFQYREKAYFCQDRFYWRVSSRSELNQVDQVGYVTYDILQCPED
# Description: proMMP9/MMP3 P126 Activation Assay
# The reaction volume was 50 μL. […] Reactivity of residual MMP3 towards P-126 substrate was minimal under these conditions.
SMILES,Kd [1],Kd [2],IC50 [3]
"CC(C)Oc1ccc(S(N)(=O)=O)cc1Nc1nc(-c2ccc(N3CCN(C)CC3)nc2)cs1 [Example 33, 4-Isopropoxy-3-{4-[6-(4-methyl-piperazin-1-yl)-pyridin-3-yl]-thiazol-2-ylamino}-benzenesulfonamide.HCl]",120 nM,46 nM,140 nM
"CC(C)Oc1ccc(S(N)(=O)=O)cc1Nc1nc(-c2ccc(NCCN(C)C)nc2)cs1 [Example 42, 3-(4-{6-[(2-Dimethylamino-ethyl)-amino]-pyridin-3-yl}-thiazol-2-ylamino)-4-isopropoxy-benzenesulfonamide.TFA]",680 nM,130 nM,150 nM
"CC(C)Oc1ccc(S(N)(=O)=O)cc1Nc1nc(-c2ccc(NCCCn3ccnc3)nc2)cs1 [Example 63, 3-((4-(6-((3-(1H-Imidazol-1-yl)propyl)amino)pyridin-3-yl)thiazol-2-yl)amino)-4-isopropoxybenzenesulfonamide.TFA]",280 nM,210 nM,150 nM
"CC(C)Oc1ccc(S(N)(=O)=O)cc1Nc1nc(-c2ccc(C(=O)N3CCCN(C)CC3)nc2)cs1 [Example 49, 3-{4-[6-(4-Methyl-[1,4]diazepane-1-carbonyl)-pyridin-3-yl]-thiazol-2-ylamino}-4-isopropoxy-benzenesulfonamide.TFA]",2000 nM,830 nM,1000 nM
"CC(C)CCNC(=O)c1ccc(-c2csc(Nc3cc(S(N)(=O)=O)ccc3OC(C)C)n2)cn1 [Example 85, N-Isopentyl-5-(2-((2-isopropoxy-5-sulfamoylphenyl)amino)thiazol-4-yl)picolinamide.TFA]",32000 nM,4600 nM,~20000 nM
"COC(=O)c1ccc(-c2csc(Nc3cc(S(N)(=O)=O)ccc3OC(C)C)n2)cn1 [Intermediate 12, 5-[2-(2-Isopropoxy-5-sulfamoyl-phenylamino)-thiazol-4-yl]-pyridine-2-carboxylic acid methyl ester.TsOH]",410 nM,,> 20000 nM
"CC(C)Oc1ccc(S(N)(=O)=O)cc1Nc1nc(-c2ccc(N3C[C@@H](C)N[C@@H](C)C3)nc2)cs1 [Example 68, 3-((4-(6-(cis-3,5-Dimethylpiperazin-1-yl)pyridin-3-yl)thiazol-2-yl)amino)-4-isopropoxybenzenesulfonamide.TFA]",,71 nM,130 nM
"CCN1CCC(NC(=O)c2ccc(-c3csc(Nc4cc(S(N)(=O)=O)ccc4OC(C)C)n3)cn2)CC1 [Example 57, 5-[2-(2-Isopropoxy-5-sulfamoyl-phenylamino)-thiazol-4-yl]-pyridine-2-carboxylic acid (1-ethyl-piperidin-4-yl)-amide.TFA]",,110 nM,240 nM
"CC(C)Oc1ccc(S(N)(=O)=O)cc1Nc1nc(-c2ccc(N3CCN(CC4CC4)CC3)nc2)cs1 [Example 71, 3-((4-(6-(4-(Cyclopropylmethyl)piperazin-1-yl)pyridin-3-yl)thiazol-2-yl)amino)-4-isopropoxybenzenesulfonamide.TFA]",,75 nM,170 nM
"CC(C)Oc1ccc(S(N)(=O)=O)cc1Nc1nc(-c2ccc(C(=O)NCC3CCOCC3)nc2)cs1 [Example 91, 5-(2-((2-Isopropoxy-5-sulfamoylphenyl)amino)thiazol-4-yl)-N-((tetrahydro-2H-pyran-4-yl)methyl)picolinamide.TFA]",,2400 nM,640 nM
"CC(C)Oc1ccc(S(N)(=O)=O)cc1Nc1nc(-c2ccc(N3CCn4ccnc4C3)nc2)cs1 [Example 82, 3-((4-(6-(5,6-Dihydroimidazo[1,2-a]pyrazin-7(8H)-yl)pyridin-3-yl)thiazol-2-yl)amino)-4-isopropoxybenzenesulfonamide.TFA]",,99 nM,370 nM

# More lines, in order of falling Kd [2], values ahead:
Kd [1],Kd [2],IC50 [3],SMILES
16000 nM,5900 nM,,"CCS(=O)(=O)c1ccc(OC)c(Nc2nc(-c3cccnc3)cs2)c1 [Example 11, (5-Ethanesulfonyl-2-methoxy-phenyl)-(4-pyridin-3-yl-thiazol-2-yl)-amine.TFA]"
,970 nM,1700 nM,"COCCNC(=O)c1ccc(-c2csc(Nc3cc(S(N)(=O)=O)ccc3OC(C)C)n2)cn1 [Example 90, 5-(2-((2-Isopropoxy-5-sulfamoylphenyl)amino)thiazol-4-yl)-N-(2-methoxyethyl)picolinamide.TFA]"
3700 nM,470 nM,370 nM,"CC(C)Oc1ccc(S(N)(=O)=O)cc1Nc1nc(-c2ccc(C(=O)O)nc2)cs1 [Example 45, 5-[2-(2-Isopropoxy-5-sulfamoyl-phenylamino)-thiazol-4-yl]-pyridine-2-carboxylic acid.HCl]"
,310 nM,> 20000 nM,"CC(C)Oc1ccc(S(N)(=O)=O)cc1Nc1nc(-c2ccc(N3CCN(CCC(F)(F)F)CC3)nc2)cs1 [Example 66, 4-Isopropoxy-3-((4-(6-(4-(3,3,3-trifluoropropyl)piperazin-1-yl)pyridin-3-yl)thiazol-2-yl)amino)benzenesulfonamide.TFA]"
,250 nM,340 nM,"CC(C)Oc1ccc(S(N)(=O)=O)cc1Nc1nc(-c2ccc(N3CCC(O)CC3)nc2)cs1 [Example 70, 3-((4-(6-(4-Hydroxypiperidin-1-yl)pyridin-3-yl)thiazol-2-yl)amino)-4-isopropoxybenzenesulfonamide.TFA]"
,170 nM,160 nM,"COCCN(C)c1ccc(-c2csc(Nc3cc(S(N)(=O)=O)ccc3OC(C)C)n2)cn1 [Example 74, 4-Isopropoxy-3-((4-(6-((2-methoxyethyl)(methyl)amino)pyridin-3-yl)thiazol-2-yl)amino)benzenesulfonamide.TFA]"
